Assay results from ChEMBL document CHEMBL3046216, “Synthesis, biological evaluation and QSAR study of a series of substituted quinazolines as antimicrobial agents” (2013).
Values after ≈ are worked out from the molar mass of the structure shown. Active and inactive are the calls of the source. The rule behind the calls is not given here.

Tests used:
Format in all cases: functional
Bacillus subtilis = test: Antimicrobial activity against Bacillus subtilis ATCC 6633 assessed as growth inhibition after 24 hr by NCCLS broth dilution method
Pseudomonas aeruginosa = test: Antimicrobial activity against Pseudomonas aeruginosa ATCC 27853 assessed as growth inhibition after 24 hr by NCCLS broth dilution method
Escherichia coli = test: Antimicrobial activity against Escherichia coli ATCC 25922 assessed as growth inhibition after 24 hr by NCCLS broth dilution method
Staphylococcus aureus = test: Antimicrobial activity against Staphylococcus aureus ATCC 25923 assessed as growth inhibition after 24 hr by NCCLS broth dilution method

SMILES | MIC (Bacillus subtilis) | MIC (Bacillus subtilis; ATCC 6633, 24 h) [µg/mL] | MIC (Pseudomonas aeruginosa) | MIC (Pseudomonas aeruginosa; ATCC 27853, 24 h) [µg/mL] | MIC (Escherichia coli) | MIC (Escherichia coli; ATCC 25922, 24 h) [µg/mL] | MIC (Staphylococcus aureus) | MIC (Staphylococcus aureus; ATCC 25923, 24 h) [µg/mL]
CN1CCN(c2cc3ncnc(Sc4nnc(-c5cccnc5)o4)c3cc2NC(=S)NC2CCCCC2)CC1 | inactive | 75 (≈ 134 µM) | inactive | 50 (≈ 89 µM) | inactive | 25 (≈ 44.5 µM) | inactive | 100 (≈ 178 µM)
CN1CCN(c2cc3ncnc(Sc4nnc(-c5cccnc5)o4)c3cc2NC(=S)Nc2ccccc2)CC1 | inactive | 25 (≈ 45 µM) | inactive | 50 (≈ 90 µM) | inactive | 25 (≈ 45 µM) | inactive | 50 (≈ 90 µM)
CN1CCN(c2cc3ncnc(Sc4nnc(-c5cccnc5)o4)c3cc2NC(=O)NCCc2ccccc2)CC1 | inactive | 25 (≈ 44 µM) | inactive | 50 (≈ 88.1 µM) | inactive | 12.5 (≈ 22 µM) | inactive | 6.25 (≈ 11 µM)
CN1CCN(c2cc3ncnc(Sc4nnc(-c5cccnc5)o4)c3cc2NC(=S)Nc2cccc(Cl)c2)CC1 | inactive | 25 (≈ 42.4 µM) | inactive | 50 (≈ 84.7 µM) | inactive | 12.5 (≈ 21.2 µM) | inactive | 6.25 (≈ 10.6 µM)
O=C(Nc1ccc(Cl)cc1)Nc1ccc2ncnc(Sc3nnc(-c4cccnc4)o3)c2c1 | inactive | 12.5 (≈ 26.3 µM) | inactive | 25 (≈ 52.5 µM) | inactive | 75 (≈ 158 µM) | inactive | 6.25 (≈ 13.1 µM)
Fc1ccc(NC(=S)Nc2ccc3ncnc(Sc4nnc(-c5cccnc5)o4)c3c2)cc1 | inactive | 6.25 (≈ 13.1 µM) | inactive | 50 (≈ 105 µM) | inactive | 12.5 (≈ 26.3 µM) | inactive | 6.25 (≈ 13.1 µM)
Cc1ccccc1NC(=S)Nc1cc2c(Sc3nnc(-c4cccnc4)o3)ncnc2cc1N1CCN(C)CC1 | inactive | 75 (≈ 132 µM) | inactive | 25 (≈ 43.9 µM) | inactive | 100 (≈ 176 µM) | inactive | 50 (≈ 87.8 µM)
Cc1cccc(NC(=O)Nc2ccc3ncnc(Sc4nnc(-c5cccnc5)o4)c3c2)c1 | inactive | 25 (≈ 54.9 µM) | inactive | 50 (≈ 110 µM) | inactive | 12.5 (≈ 27.4 µM) | inactive | 25 (≈ 54.9 µM)
O=C(Nc1ccc(-c2ccccc2)cc1)Nc1ccc2ncnc(Sc3nnc(-c4cccnc4)o3)c2c1 | inactive | 12.5 (≈ 24.2 µM) | inactive | 75 (≈ 145 µM) | inactive | 100 (≈ 193 µM) | inactive | 12.5 (≈ 24.2 µM)
Cc1ccc(NC(=O)Nc2cc3c(Sc4nnc(-c5cccnc5)o4)ncnc3cc2N2CCN(C)CC2)cc1 | inactive | 12.5 (≈ 22.6 µM) | inactive | 50 (≈ 90.3 µM) | inactive | 50 (≈ 90.3 µM) | inactive | 25 (≈ 45.2 µM)
CN1CCN(c2cc3ncnc(Sc4nnc(-c5cccnc5)o4)c3cc2NC(=S)Nc2ccccc2Cl)CC1 | inactive | 6.25 (≈ 10.6 µM) | inactive | 12.5 (≈ 21.2 µM) | inactive | 25 (≈ 42.4 µM) | inactive | 25 (≈ 42.4 µM)
CN1CCN(c2cc3ncnc(Sc4nnc(-c5cccnc5)o4)c3cc2NC(=S)Nc2ccc(Cl)cc2)CC1 | inactive | 12.5 (≈ 21.2 µM) | inactive | 50 (≈ 84.7 µM) | inactive | 50 (≈ 84.7 µM) | inactive | 25 (≈ 42.4 µM)
S=C(Nc1ccccc1)Nc1ccc2ncnc(Sc3nnc(-c4cccnc4)o3)c2c1 | inactive | 75 (≈ 164 µM) | inactive | 100 (≈ 219 µM) | inactive | 50 (≈ 109 µM) | inactive | 50 (≈ 109 µM)
CN1CCN(c2cc3ncnc(Sc4nnc(-c5cccnc5)o4)c3cc2NC(=O)Nc2ccc(-c3ccccc3)cc2)CC1 | inactive | 100 (≈ 162 µM) | inactive | 25 (≈ 40.6 µM) | inactive | 50 (≈ 81.2 µM) | inactive | 25 (≈ 40.6 µM)
S=C(Nc1ccc2ncnc(Sc3nnc(-c4cccnc4)o3)c2c1)Nc1ccccc1Cl | inactive | 50 (≈ 102 µM) | inactive | 50 (≈ 102 µM) | inactive | 25 (≈ 50.8 µM) | inactive | 25 (≈ 50.8 µM)
CN[C@@H]1[C@H](O[C@H]2[C@H](O[C@H]3[C@H](O)[C@@H](O)[C@H](N=C(N)N)[C@@H](O)[C@@H]3N=C(N)N)O[C@@H](C)[C@]2(O)C=O)O[C@@H](CO)[C@H](O)[C@H]1O [STREPTOMYCIN] | inactive | 6.25 (≈ 10.7 µM) | inactive | 3.12 (≈ 5.37 µM) | inactive | 3.12 (≈ 5.37 µM) | inactive | 6.25 (≈ 10.7 µM)

SMILES | MIC (Bacillus subtilis) | MIC (Bacillus subtilis; ATCC 6633, 24 h) [µg/mL] | MIC (Pseudomonas aeruginosa) | MIC (Pseudomonas aeruginosa; ATCC 27853, 24 h) [µg/mL] | MIC (Escherichia coli) | MIC (Escherichia coli; ATCC 25922, 24 h) [µg/mL] | MIC (Staphylococcus aureus) | MIC (Staphylococcus aureus; ATCC 25923, 24 h) [µg/mL]
COc1ccccc1NC(=S)Nc1ccc2ncnc(Sc3nnc(-c4cccnc4)o3)c2c1 | inactive | 25 (≈ 51.3 µM) | inactive | 50 (≈ 103 µM) | inactive | 25 (≈ 51.3 µM) | inactive | 12.5 (≈ 25.6 µM)
CN1CCN(c2cc3ncnc(Sc4nnc(-c5cccnc5)o4)c3cc2NC(=O)Nc2ccccc2Cl)CC1 | inactive | 50 (≈ 87.1 µM) | inactive | 100 (≈ 174 µM) | inactive | 50 (≈ 87.1 µM) | inactive | 25 (≈ 43.5 µM)
Cc1ccc(NC(=S)Nc2cc3c(Sc4nnc(-c5cccnc5)o4)ncnc3cc2N2CCN(C)CC2)cc1 | inactive | 50 (≈ 87.8 µM) | inactive | 50 (≈ 87.8 µM) | inactive | 50 (≈ 87.8 µM) | inactive | 12.5 (≈ 21.9 µM)
CC1(C)S[C@@H]2[C@H](NC(=O)Cc3ccccc3)C(=O)N2[C@H]1C(=O)O [PENICILLIN G] | inactive | 1.56 (≈ 4.67 µM) | inactive | 12.5 (≈ 37.4 µM) | inactive | 6.25 (≈ 18.7 µM) | inactive | 1.56 (≈ 4.67 µM)
Cc1ccc(NC(=S)Nc2ccc3ncnc(Sc4nnc(-c5cccnc5)o4)c3c2)cc1 | inactive | 25 (≈ 53 µM) | inactive | 75 (≈ 159 µM) | inactive | 50 (≈ 106 µM) | inactive | 25 (≈ 53 µM)
O=C(NCCc1ccccc1)Nc1ccc2ncnc(Sc3nnc(-c4cccnc4)o3)c2c1 | inactive | 50 (≈ 106 µM) | inactive | 75 (≈ 160 µM) | inactive | 50 (≈ 106 µM) | inactive | 12.5 (≈ 26.6 µM)
Cc1ccccc1NC(=S)Nc1ccc2ncnc(Sc3nnc(-c4cccnc4)o3)c2c1 | inactive | 50 (≈ 106 µM) | inactive | 100 (≈ 212 µM) | inactive | 25 (≈ 53 µM) | inactive | 75 (≈ 159 µM)
Cc1cccc(NC(=S)Nc2cc3c(Sc4nnc(-c5cccnc5)o4)ncnc3cc2N2CCN(C)CC2)c1 | inactive | 25 (≈ 43.9 µM) | inactive | 100 (≈ 176 µM) | inactive | 25 (≈ 43.9 µM) | inactive | 50 (≈ 87.8 µM)
CC1COc2c(N3CCN(C)CC3)c(F)cc3c(=O)c(C(=O)O)cn1c23 (configuration not stated) [OFLOXACIN] | inactive | 0.125 (≈ 0.346 µM) | inactive | 10 (≈ 27.7 µM) | inactive | 0.125 (≈ 0.346 µM) | inactive | 0.25 (≈ 0.692 µM)
S=C(Nc1ccc(Cl)cc1)Nc1ccc2ncnc(Sc3nnc(-c4cccnc4)o3)c2c1 | inactive | 12.5 (≈ 25.4 µM) | inactive | 100 (≈ 203 µM) | inactive | 25 (≈ 50.8 µM) | inactive | 25 (≈ 50.8 µM)
Cc1ccccc1NC(=O)Nc1cc2c(Sc3nnc(-c4cccnc4)o3)ncnc2cc1N1CCN(C)CC1 | inactive | 100 (≈ 181 µM) | inactive | 100 (≈ 181 µM) | inactive | 50 (≈ 90.3 µM) | inactive | 12.5 (≈ 22.6 µM)
COc1ccccc1NC(=S)Nc1cc2c(Sc3nnc(-c4cccnc4)o3)ncnc2cc1N1CCN(C)CC1 | inactive | 25 (≈ 42.7 µM) | inactive | 50 (≈ 85.4 µM) | inactive | 25 (≈ 42.7 µM) | inactive | 12.5 (≈ 21.3 µM)
CN1CCN(c2cc3ncnc(Sc4nnc(-c5cccnc5)o4)c3cc2NC(=O)NC2CCCCC2)CC1 | inactive | 12.5 (≈ 22.9 µM) | inactive | 50 (≈ 91.6 µM) | inactive | 25 (≈ 45.8 µM) | inactive | 50 (≈ 91.6 µM)
CC1(C)S[C@@H]2[C@H](NC(=O)[C@H](N)c3ccccc3)C(=O)N2[C@H]1C(=O)O.O.O.O [AMPICILLIN TRIHYDRATE] | inactive | 0.25 | inactive |  | inactive | 10 | inactive | 0.05
CN1CCN(c2cc3ncnc(Sc4nnc(-c5cccnc5)o4)c3cc2NC(=O)Nc2ccccc2)CC1 | inactive | 12.5 (≈ 23.2 µM) | inactive | 50 (≈ 92.7 µM) | inactive | 25 (≈ 46.3 µM) | inactive | 25 (≈ 46.3 µM)
